Columns and labels:
CYP2C9 [1] = target: T1, CYP2C9 (Homo sapiens, UniProt P11712); test: Biological Test Example 9: CYP2C9 inhibition (Invitrogen kit, fluorogenic OOMR); assay type: in vitro ADME
T1 construct: purchased Invitrogen 2859; host or cells: insect cells infected with baculovirus (microsomes)

11β-HSD1 [2] = target: T2, 11β-HSD1 (Homo sapiens, UniProt P28845); test: Biological Test Example 4: microsomal 11β-HSD1 in the presence of 50% human plasma; settings: for Shift: IC50 in Test Example 4 divided by IC50 in Test Example 1
11β-HSD1 [3] = target: T2, 11β-HSD1; test: biochemical; settings: for inhibition at 0.1 µM: read-out: Average % inhibition at 100 nM
CYP3A4 = CYP3A4 (Homo sapiens, UniProt P08684); test: Biological Test Example 6: CYP3A4 inhibition (erythromycin N-demethylation); assay type: in vitro ADME
CYP2C9 [4] = target: T1, CYP2C9; test: Biological Test Example 7: CYP2C9 inhibition (naproxen O-demethylation); assay type: in vitro ADME
[5] = Biological Test Example 1 IC50 (nM)
[6] = IC50 Range, Biological Test Example 1

T2 sequence (P28845 whole entry): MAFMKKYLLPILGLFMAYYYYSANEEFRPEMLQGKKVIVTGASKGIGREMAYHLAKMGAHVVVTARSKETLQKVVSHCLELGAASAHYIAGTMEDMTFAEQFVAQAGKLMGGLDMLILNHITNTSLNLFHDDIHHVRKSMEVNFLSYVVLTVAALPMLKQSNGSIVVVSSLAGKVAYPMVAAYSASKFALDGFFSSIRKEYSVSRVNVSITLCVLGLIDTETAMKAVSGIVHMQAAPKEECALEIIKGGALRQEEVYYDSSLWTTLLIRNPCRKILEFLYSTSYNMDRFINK
T1 sequence (P11712 whole entry): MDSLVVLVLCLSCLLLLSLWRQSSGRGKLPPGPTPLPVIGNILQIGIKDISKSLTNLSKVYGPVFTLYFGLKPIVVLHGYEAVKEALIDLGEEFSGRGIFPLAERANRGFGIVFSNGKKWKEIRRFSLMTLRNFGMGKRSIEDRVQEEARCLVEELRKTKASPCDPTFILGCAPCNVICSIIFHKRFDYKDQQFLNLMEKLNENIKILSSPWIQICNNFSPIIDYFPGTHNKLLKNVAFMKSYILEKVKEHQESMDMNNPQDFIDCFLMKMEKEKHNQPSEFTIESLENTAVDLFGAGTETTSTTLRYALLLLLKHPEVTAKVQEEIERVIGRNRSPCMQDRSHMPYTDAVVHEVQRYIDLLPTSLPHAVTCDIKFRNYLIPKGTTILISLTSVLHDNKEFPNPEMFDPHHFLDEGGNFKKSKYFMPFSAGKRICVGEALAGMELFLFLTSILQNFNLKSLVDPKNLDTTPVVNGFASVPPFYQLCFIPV
Sequence of CYP3A4 (P08684 whole entry): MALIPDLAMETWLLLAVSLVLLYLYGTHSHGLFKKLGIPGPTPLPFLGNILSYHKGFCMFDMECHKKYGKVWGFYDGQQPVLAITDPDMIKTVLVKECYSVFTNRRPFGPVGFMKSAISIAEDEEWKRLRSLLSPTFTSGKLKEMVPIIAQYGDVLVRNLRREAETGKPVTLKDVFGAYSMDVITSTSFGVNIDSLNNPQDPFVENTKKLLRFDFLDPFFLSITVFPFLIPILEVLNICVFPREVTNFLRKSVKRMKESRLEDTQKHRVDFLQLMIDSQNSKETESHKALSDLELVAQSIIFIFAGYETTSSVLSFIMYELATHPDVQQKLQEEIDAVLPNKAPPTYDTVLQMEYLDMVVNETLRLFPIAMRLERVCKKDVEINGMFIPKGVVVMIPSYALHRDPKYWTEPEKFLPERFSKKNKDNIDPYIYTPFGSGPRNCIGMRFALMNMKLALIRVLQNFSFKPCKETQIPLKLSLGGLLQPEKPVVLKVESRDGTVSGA

Structure (SMILES) | IC50 (CYP2C9 [1]) | IC50 (11β-HSD1 [2]) | Shift (11β-HSD1 [2]) | IC50 (11β-HSD1 [3]; [5]) | IC50 (11β-HSD1 [3]; [6]) | inhibition at 0.1 µM (11β-HSD1 [3]) | IC50 (CYP3A4) | IC50 (CYP2C9 [4])
C[C@@H](c1ccc(-c2ccc(C(C)(C)O)nn2)cc1)N1CC[C@](CC(C)(C)O)(c2ccccc2)OC1=O [EXAMPLE 7, (S)-6-(2-hydroxy-2-methylpropyl)-3-((S)-1-(4-(6-(2-hydroxypropan-2-yl)pyridazin-3-yl)phenyl)ethyl)-6-phenyl-1,3-oxazinan-2-one] | 5.3 µM | 4.3 nM | 0.9 | 4.9 nM | < 100 nM | 93.3% | – | –
COc1cc(-c2ccc([C@H](C)N3CC[C@](CCCO)(c4ccc(F)cc4)OC3=O)cc2)ccn1 [EXAMPLE 147, (R)-6-(4-fluorophenyl)-6-(3-hydroxypropyl)-3-((S)-1-(4-(2-methoxypyridin-4-yl)phenyl)ethyl)-1,3-oxazinan-2-one] | 4.6 µM | 7.9 nM | – | 0.9 nM | < 100 nM | 98.7% | – | –
Cc1nnc(CC[C@]2(c3ccccc3)CCN([C@@H](C)c3ccc(-c4ccc(C#N)cn4)cc3)C(=O)O2)o1 [EXAMPLE 145, 6-(4-((S)-1-((R)-6-(2-(5-methyl-1,3,4-oxadiazol-2-yl)ethyl)-2-oxo-6-phenyl-1,3-oxazinan-3-yl)ethyl)phenyl)nicotinonitrile] | > 30 µM | – | – | 32.8 nM | < 100 nM | 72.4% | – | –
Cc1cc(-c2ccc([C@H](C)N3CC[C@](C)(c4ccc(F)cc4)OC3=O)cc2)ccn1 (single isomer, unassigned) [EXAMPLE 107.2] | 17.5 µM | 269 nM | 83.8 | 3.2 nM | < 100 nM | 93.6% | – | –
Cc1cc(-c2ccc([C@H](C)N3CC[C@](CCN4CCCS4(=O)=O)(c4ccccc4)OC3=O)cc2)ccn1 [EXAMPLE 105, (S)-6-(2-(1,1-dioxo-isothiazolidin-2-yl)ethyl)-3-((S)-1-(4-(2-methylpyridin-4-yl)phenyl)ethyl)-6-phenyl-1,3-oxazinan-2-one] | 2.5 µM | – | – | 19.2 nM | < 100 nM | 86.3% | – | –
C[C@@H](c1ccc(-c2ccc(F)cn2)cc1)N1CC[C@](CCCO)(c2ccccc2)OC1=O [EXAMPLE 112, (R)-3-((S)-1-(4-(5-fluoropyridin-2-yl)phenyl)ethyl)-6-(3-hydroxpropyl)-6-Phenyl-1,3-oxazinan-2-one] | 6.1 µM | – | – | 0.5 nM | < 100 nM | 95.2% | – | –
COc1ccc(-c2ccc([C@H](C)N3CC[C@](CCCO)(c4ccccc4)OC3=O)cc2)cn1 [EXAMPLE 40, (R)-6-(3-hydroxypropyl)-3-((S)-1-(4-(6-methoxypyridin-3-yl)phenyl)ethyl)-6-phenyl-1,3-oxazinan-2-one] | 10 µM | – | – | – | – | – | – | –
Cc1nnc(CC[C@]2(c3ccccc3)CCN([C@@H](C)c3ccc(-c4ccc(C#N)cn4)cc3)C(=O)O2)s1 [EXAMPLE 146, 6-(4-((S)-1-((R)-6-(2-(5-methyl-1,3,4-thiadiazol-2-yl)ethyl)-2-oxo-6-phenyl-1,3-oxazinan-3-yl)ethyl)phenyl)nicotinonitrile] | 6.1 µM | – | – | 17.4 nM | < 100 nM | 78.9% | – | –
C[C@@H](c1ccc(-c2ccncc2)cc1)N1CC[C@](CCCO)(c2ccccc2)OC1=O [EXAMPLE 35, (R)-6-(3-hydroxypropyl)-6-phenyl-3-((S)-1-(4-(pyridin-4-yl)phenyl)ethyl)-1,3-oxazinan-2-one] | 2.2 µM | – | – | – | – | – | – | –
Cc1ccc(-c2ccc([C@H](C)N3CC[C@](CCc4nnc(C)o4)(c4ccccc4)OC3=O)cc2)nn1 [EXAMPLE 12, (R)-6-(2-(5-methyl-1,3,4-oxadiazol-2-yl)ethyl)-3-((S)-1-(4-(6-methylpyridazin-3-yl)phenyl)ethyl)-6-phenyl-1,3-oxazinan-2-one] | 4 µM | – | – | – | – | – | – | –
Cc1cc(-c2ccc([C@H](C)N3CC[C@](CCCN4CCCS4(=O)=O)(c4ccccc4)OC3=O)cc2)ccn1 [EXAMPLE 106, (R)-6-(3-(1,1-dioxo-isothiazolidin-2-yl)propyl)-3-((S)-1-(4-(2-methylpyridin-4-yl)phenyl)ethyl)-6-phenyl-1,3-oxazinan-2-one] | 9.5 µM | – | – | 22.7 nM | < 100 nM | 79.6% | – | –
C[C@@H](c1ccc(-c2cccnc2)cc1)N1CC[C@](CCNS(C)(=O)=O)(c2ccccc2)OC1=O [EXAMPLE 55, N-(2-((S)-2-oxo-6-phenyl-3-((S)-1-(4-(pyridin-3-yl)phenyl)ethyl)-1,3-oxazinan-6-yl)ethyl)methanesulfonamide] | 14.1 µM | – | – | – | – | 96.5% | – | –
C[C@@H](c1ccc(-c2cncc(F)c2)cc1)N1CC[C@](CCCO)(c2ccccc2)OC1=O [EXAMPLE 49, (R)-3-((S)-1-(4-(5-fluoropyridin-3-yl)phenyl)ethyl)-6-(3-hydroxypropyl)-6-phenyl-1,3-oxazinan-2-one] | 8.4 µM | – | – | – | – | – | – | –
C[C@@H](c1ccc(-c2cccnc2)cc1)N1CC[C@](CCO)(c2ccccc2)OC1=O [EXAMPLE 34, (S)-6-(2-hydroxyethyl)-6-phenyl-3-((S)-1-(4-(pyridin-3-yl)phenyl)ethyl)-1,3-oxazinan-2-one] | 5.1 µM | – | – | – | – | – | – | –
Cc1nc(-c2ccc([C@H](C)N3CC[C@](CC(C)(C)O)(c4ccccc4)OC3=O)cc2)ccc1C#N [EXAMPLE 1, 6-(4-((S)-1-((S)-6-(2-hydroxy-2-methylpropyl)-2-oxo-6-phenyl-1,3-oxazinan-3-yl)ethyl)phenyl)-2-methylnicotinonitrile] | – | 7.3 nM | – | 0.7 nM | < 100 nM | 96.4% | 16.7 µM | 12.9 µM
Cc1nc(C)c(-c2ccc([C@H](C)N3CC[C@](CCC(N)=O)(c4ccc(F)cc4)OC3=O)cc2)s1 [EXAMPLE 84, 3-((R)-3-((S)-1-(4-(2,4-dimethylthiazol-5-yl)phenyl)ethyl)-6-(4-fluorophenyl)-2-oxo-1,3-oxazinan-6-yl)propanamide] | – | 12.4 nM | 3.5 | 3.5 nM | < 100 nM | 93.3% | – | –
C[C@@H](c1ccc(-c2ccc(C(C)(C)C)nn2)cc1)N1CC[C@](CC(C)(C)O)(c2ccccc2)OC1=O [EXAMPLE 6, (S)-3-((S)-1-(4-(6-tert-butylpyridazin-3-yl)phenyl)ethyl)-6-(2-hydroxy-2-methylpropyl)-6-phenyl-1,3-oxazinan-2-one] | – | 8.6 nM | 8.4 | 1 nM | < 100 nM | 96.3% | – | –
C[C@@H](c1ccc(-c2cccnc2)cc1)N1CC[C@](CCCO)(c2ccccc2)OC1=O [EXAMPLE 36, (R)-6-(3-hydroxypropyl)-6-phenyl-3-((S)-1-(4-(pyridin-3-yl)phenyl)ethyl)-1,3-oxazinan-2-one] | 5.2 µM | – | – | – | – | – | – | –

Results, then the compound that gave them:

IC50 (CYP2C9 [1]) | IC50 (11β-HSD1 [2]) | Shift (11β-HSD1 [2]) | IC50 (11β-HSD1 [3]; [5]) | IC50 (11β-HSD1 [3]; [6]) | inhibition at 0.1 µM (11β-HSD1 [3]) | IC50 (CYP3A4) | IC50 (CYP2C9 [4]) | Structure (SMILES)
4.3 µM | 6.8 nM | 12.3 | 0.6 nM | < 100 nM | 98.6% | – | – | C[C@@H](c1ccc(-c2ccnc(N)c2)cc1)N1CC[C@](CCCO)(c2ccccc2)OC1=O [EXAMPLE 125, (R)-3-((S)-1-(4-(2-aminopyridin-4-yl)phenyl)ethyl)-6-(3-hydroxypropyl)-6-phenyl-1,3-oxazinan-2-one]
> 30 µM | – | – | – | – | – | – | – | C[C@@H](c1ccc(-c2ccc[n+]([O-])c2)cc1)N1CC[C@](CCCO)(c2ccccc2)OC1=O [EXAMPLE 38, 3-(4-((S)-1-((R)-6-(3-hydroxypropyl)-2-oxo-6-phenyl-1,3-oxazinan-3-yl)ethyl)phenyl)pyridine 1-oxide]
2.4 µM | – | – | – | – | – | – | – | C[C@@H](c1ccc(-c2ccc(N)nc2)cc1)N1CC[C@](CCCO)(c2ccccc2)OC1=O [EXAMPLE 95, (R)-3-((S)-1-(4-(6-aminopyridin-3-yl)phenyl)ethyl)-6-(3-hydroxypropyl)-6-phenyl-1,3-oxazinan-2-one]
18.4 µM | – | – | – | – | – | – | – | Cc1ncc(-c2ccc([C@H](C)N3CC[C@](CCCO)(c4ccc(F)cc4)OC3=O)cc2)cn1 [EXAMPLE 137, (R)-6-(4-fluorophenyl)-6-(3-hydroxypropyl)-3-((S)-1-(4-(2-methylpyrimidin-5-yl)phenyl)ethyl)-1,3-oxazinan-2-one]
> 30 µM | – | – | – | – | – | – | – | Cc1cc(-c2ccc([C@H](C)N3CC[C@](CCCO)(c4ccccc4)OC3=O)cc2)cc(C)n1 [EXAMPLE 133, (R)-3-((S)-1-(4-(2,6-dimethylpyridin-4-yl)phenyl)ethyl)-6-(3-hydroxypropyl)-6-phenyl-1,3-oxazinan-2-one]
– | 19.8 nM | – | 1.8 nM | < 100 nM | 95.8% | 7.3 µM | – | Cc1cc(-c2ccc([C@H](C)N3CC[C@](CCC(N)=O)(c4ccc(F)cc4)OC3=O)cc2)ccn1 [EXAMPLE 78, 3-((R)-6-(4-fluorophenyl)-3-((S)-1-(4-(2-methylpyridin-4-yl)phenyl)ethyl)-2-oxo-1,3-oxazinan-6-yl)propanamide]
– | 6.3 nM | – | 1.4 nM | < 100 nM | 97.8% | 42.2 µM | – | Cc1cc(-c2ccc([C@H](C)N3CC[C@](CCC(N)=O)(c4ccccc4)OC3=O)cc2)ccn1 [EXAMPLE 98, 3-((R)-3-((S)-1-(4-(2-methylpyridin-4-yl)phenyl)ethyl)-2-oxo-6-phenyl-1,3-oxazinan-6-yl)propanamide]
– | 13.5 nM | 25.5 | 0.5 nM | < 100 nM | 96.7% | – | – | Cc1cccc(-c2ccc([C@H](C)N3CC[C@](CCCO)(c4ccccc4)OC3=O)cc2)n1 [EXAMPLE 90, (R)-6-(3-hydroxypropyl)-3-((S)-1-(4-(6-methylpyridin-2-yl)phenyl)ethyl)-6-phenyl-1,3-oxazinan-2-one]

Source: patent US8569292B2, “Cyclic inhibitors of 11β-hydroxysteroid dehydrogenase 1” (Vitae Pharmaceuticals, Inc., priority 2008, dated 2013)
